Test: Solubility in water
Format: physicochemical
Conditions: aqueous solubility determined at about 22° C. unless otherwise specified, read-out: solubility in water
Excerpt: The invention is useful for CETP inhibitors which have sufficiently low aqueous solubility, low bioavailability or slow rate of absorption such that it is desirable to increase their concentration in an aqueous environment of use. Therefore, anytime one finds it desirable to raise the aqueous concentration of the CETP inhibitor in a use environment, the invention will find utility.

Row | solubility [µg/mL] | SMILES
1 | < 1 | CCc1cc(Oc2cccc(N(Cc3cccc(OC(F)(F)C(F)F)c3)C[C@@H](O)C(F)(F)F)c2)ccc1Cl [Drug 11, (2R)-3-[[3-(4-chloro-3-ethylphenoxy)phenyl][[3-(1,1,2,2-tetrafluoroethoxy)phenyl]methyl]amino]-1,1,1-trifluoro-2-propanol]
2 | < 1 | CC[C@@H]1C[C@H](N(Cc2cc(C(F)(F)F)cc(C(F)(F)F)c2)C(=O)OC)c2cc(C(F)(F)F)ccc2N1C(=O)OC(C)C [Drug 12, [2R,4S]4-[(3,5-bis-trifluoromethyl-benzyl)-methoxycarbonyl-amino]-2-ethyl-6-trifluoromethyl-3,4-dihydro-2H-quinoline-1-carboxylic acid isopropyl ester]

Source: patent US8389011B2, “Pharmaceutical compositions of cholesteryl ester transfer protein inhibitors” (Bend Research, Inc., priority 2000, dated 2013)
